These results are taken from patent US12018021B2 (UCB Biopharma SRL, priority 2018, dated 2024).

pIC50: −log10 of the molar value. Bounds are passed on as bounds.

IgE-Tb / sFcεRIα-Y131A-AF488, sequence (P01854 whole entry N146Q/N252Q): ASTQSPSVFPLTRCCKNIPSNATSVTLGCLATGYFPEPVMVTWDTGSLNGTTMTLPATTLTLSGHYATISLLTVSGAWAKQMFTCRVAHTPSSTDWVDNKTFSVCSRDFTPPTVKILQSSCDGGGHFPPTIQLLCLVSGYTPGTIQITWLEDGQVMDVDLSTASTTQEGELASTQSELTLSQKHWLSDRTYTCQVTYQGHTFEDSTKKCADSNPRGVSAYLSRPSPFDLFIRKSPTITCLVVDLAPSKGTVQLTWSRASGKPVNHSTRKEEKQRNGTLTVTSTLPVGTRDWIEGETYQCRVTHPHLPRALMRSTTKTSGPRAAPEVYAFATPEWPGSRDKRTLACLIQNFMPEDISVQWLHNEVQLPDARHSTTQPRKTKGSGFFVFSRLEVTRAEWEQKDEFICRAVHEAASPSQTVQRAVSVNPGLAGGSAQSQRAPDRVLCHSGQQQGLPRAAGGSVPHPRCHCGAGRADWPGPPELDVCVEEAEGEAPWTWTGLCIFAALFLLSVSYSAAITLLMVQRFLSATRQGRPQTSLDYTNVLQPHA

In this experiment the target is IgE-Tb / sFcεRIα-Y131A-AF488 (Homo sapiens, UniProt P01854, N146Q/N252Q). Briefly: IgE-Tb / sFcεRIα-Y131A-AF488 FRET assay (protocol for examples 234 to 501). The class given is binding. To be noted: examples 234 to 501: compound with IgE-Tb 30 minutes before sFcεRIα-Y131A-AF488, incubated 18 hours at room temperature; read-out: Y131A FRET IC50 range. In a few lines:
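Compounds (10-point 3-fold series, top usually 10 μM, 2% DMSO) preincubated 30 min with 5 nM IgE-Tb, then 25 nM sFcεRIα-Y131A-AF488 added; 18 h at room temperature in the dark. TR-FRET ratio 520/490 nm after 337 nm excitation, background-subtracted; IC50 by four-parameter logistic fit.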
As a reminder, the pIC50 is the IC50 on a negative log10 scale, so that one unit is a factor of ten. For `Cn1nc(OC(F)F)cc1Nc1nncn1[C@H]1CCc2sc(NC(=O)C3CC3)c(C(=O)NC[C@H]3C[C@H](F)C3)c2C1` [Example 456, (5S)-2-(cyclopropanecarbonylamino)-5-[3-[[5-(difluoromethoxy)-2-methylpyrazol-3-yl]amino]-1,2,4-triazol-4-yl]-N-[trans-(3-fluorocyclobutyl)methyl]-4,5,6,7-tetrahydro-1-benzothiophene-3-carboxamide], the pIC50 is more than 6.00.

Take `Cn1nc(OC(F)F)cc1Nc1nncn1[C@H]1CCc2sc(NC(=O)C3CC3)c(C(=O)NCC3CCC3F)c2C1` (stereo partly drawn) [Example 457, (5S)-2-(cyclopropanecarbonylamino)-5-[3-[[5-(difluoromethoxy)-2-methylpyrazol-3-yl]amino]-1,2,4-triazol-4-yl]-N-[(2-fluorocyclobutyl)methyl]-4,5,6,7-tetrahydro-1-benzothiophene-3-carboxamide]: the pIC50 was more than 6.00.

As for `Cn1nc(OC(F)F)cc1Nc1nncn1[C@H]1CCc2sc(NC(=O)C3CC3)c(C(=O)NC[C@H]3C[C@H]3F)c2C1` [Example 461, (5S)-2-(cyclopropanecarbonylamino)-5-[3-[[5-(difluoromethoxy)-2-methylpyrazol-3-yl]amino]-1,2,4-triazol-4-yl]-N-[[(1R,2R)-2-fluorocyclopropyl]methyl]-4,5,6,7-tetrahydro-1-benzothiophene-3-carboxamide], the pIC50 is more than 6.00.

Regarding `Cn1nc(OC(F)F)cc1Nc1nncn1[C@H]1CCc2sc(NC(=O)C3CC3)c(C(=O)NC[C@H]3C[C@@H]3F)c2C1` [Example 462, (5S)-2-(cyclopropanecarbonylamino)-5-[3-[[5-(difluoromethoxy)-2-methylpyrazol-3-yl]amino]-1,2,4-triazol-4-yl]-N-[[(1R,2S)-2-fluorocyclopropyl]methyl]-4,5,6,7-tetrahydro-1-benzothiophene-3-carboxamide], the pIC50 was more than 6.00.

For the compound `COc1cc(Nc2nncn2[C@H]2CCc3sc(NC(=O)[C@H]4C[C@@H]4C)c(C(=O)NC[C@H]4C[C@@H]4F)c3C2)n(C)n1` [Example 466, (5S)—N-[[(1R,2S)-2-fluorocyclopropyl]methyl]-5-[3-[(5-methoxy-2-methylpyrazol-3-yl)amino]-1,2,4-triazol-4-yl]-2-[[(1S,2S)-2-methylcyclopropanecarbonyl]amino]-4,5,6,7-tetrahydro-1-benzothiophene-3-carboxamide], the pIC50 was more than 6.00.

For `COc1cc(Nc2nncn2[C@H]2CCc3sc(NC(=O)[C@H]4C[C@@H]4C)c(C(=O)NC[C@H]4C[C@H](F)C4)c3C2)n(C)n1` [Example 467, (5S)—N-[trans-(3-fluorocyclobutyl)methyl]-5-[3-[(5-methoxy-2-methylpyrazol-3-yl)amino]-1,2,4-triazol-4-yl]-2-[[(1S,2S)-2-methylcyclopropanecarbonyl]amino]-4,5,6,7-tetrahydro-1-benzothiophene-3-carboxamide], the pIC50 is more than 6.00.

Take `COc1cc(Nc2nncn2[C@H]2CCc3sc(NC(=O)[C@H]4C[C@@H]4C)c(C(=O)NCC4CC4)c3C2)n(C)n1` [Example 468, (5S)—N-(cyclopropylmethyl)-5-[3-[(5-methoxy-2-methylpyrazol-3-yl)amino]-1,2,4-triazol-4-yl]-2-[[(1S,2S)-2-methylcyclopropanecarbonyl]amino]-4,5,6,7-tetrahydro-1-benzothiophene-3-carboxamide]: the pIC50 is more than 6.00.

Turning to `Cn1nc(C(F)F)cc1Nc1nncn1[C@H]1CCc2sc(NC(=O)[C@H]3C[C@H](F)C3)c(C(=O)NC[C@H]3C[C@@H]3F)c2C1` [Example 471, (5S)-5-[3-[[5-(difluoromethyl)-2-methylpyrazol-3-yl]amino]-1,2,4-triazol-4-yl]-2-[trans-(3-fluorocyclobutanecarbonyl)amino]-N-[[(1R,2S)-2-fluorocyclopropyl]methyl]-4,5,6,7-tetrahydro-1-benzothiophene-3-carboxamide], the negative-log IC50 (pIC50) is more than 6.00.

As for `Cn1nc(C(F)F)cc1Nc1nncn1[C@H]1CCc2sc(NC(=O)[C@H]3C[C@H](F)C3)c(C(=O)NCC3CCC3)c2C1` [Example 473, (5S)—N-(cyclobutylmethyl)-5-[3-[[5-(difluoromethyl)-2-methylpyrazol-3-yl]amino]-1,2,4-triazol-4-yl]-2-[trans-(3-fluorocyclobutanecarbonyl)amino]-4,5,6,7-tetrahydro-1-benzothiophene-3-carboxamide], the pIC50 was more than 6.00.

As to `Cn1nc(C(F)F)cc1Nc1nncn1[C@H]1CCc2sc(NC(=O)C3CC(F)(F)C3)c(C(=O)NC[C@H]3C[C@H]3F)c2C1` [Example 479, (5S)-2-[(3,3-difluorocyclobutanecarbonyl)amino]-5-[3-[[5-(difluoromethyl)-2-methylpyrazol-3-yl]amino]-1,2,4-triazol-4-yl]-N-[[(1R,2R)-2-fluorocyclopropyl]methyl]-4,5,6,7-tetrahydro-1-benzothiophene-3-carboxamide], the negative-log IC50 (pIC50) is more than 6.00.

Take `Cn1nc(C(F)F)cc1Nc1nncn1[C@H]1CCc2sc(NC(=O)C3CC(F)(F)C3)c(C(=O)N[C@H]3C[C@H](F)C3)c2C1` [Example 480, (5S)-2-[(3,3-difluorocyclobutanecarbonyl)amino]-5-[3-[[5-(difluoromethyl)-2-methylpyrazol-3-yl]amino]-1,2,4-triazol-4-yl]-N-(trans-3-fluorocyclobutyl)-4,5,6,7-tetrahydro-1-benzothiophene-3-carboxamide]: the pIC50 is more than 6.00.

On to `Cn1nc(OC(F)F)cc1Nc1nncn1[C@H]1CCc2sc(NC(=O)[C@H]3C[C@H](F)C3)c(C(=O)NC[C@@H]3C[C@@H]3F)c2C1` [Example 481, (5S)-5-[3-[[5-(difluoromethoxy)-2-methylpyrazol-3-yl]amino]-1,2,4-triazol-4-yl]-2-[trans-(3-fluorocyclobutanecarbonyl)amino]-N-[[(1S,2S)-2-fluorocyclopropyl]methyl]-4,5,6,7-tetrahydro-1-benzothiophene-3-carboxamide], for which the negative logarithm of the IC50 (pIC50) is more than 6.00.

On to `Cn1nc(OC(F)F)cc1Nc1nncn1[C@H]1CCc2sc(NC(=O)[C@H]3C[C@H](F)C3)c(C(=O)NC[C@H]3C[C@H]3F)c2C1` [Example 482, (5S)-5-[3-[[5-(difluoromethoxy)-2-methylpyrazol-3-yl]amino]-1,2,4-triazol-4-yl]-2-[trans-(3-fluorocyclobutanecarbonyl)amino]-N-[[(1R,2R)-2-fluorocyclopropyl]methyl]-4,5,6,7-tetrahydro-1-benzothiophene-3-carboxamide], for which the pIC50 was more than 6.00.

In the case of `Cn1nc(OC(F)F)cc1Nc1nncn1[C@H]1CCc2sc(NC(=O)[C@H]3C[C@H](F)C3)c(C(=O)NC[C@H]3C[C@@H]3F)c2C1` [Example 483, (5S)-5-[3-[[5-(difluoromethoxy)-2-methylpyrazol-3-yl]amino]-1,2,4-triazol-4-yl]-2-[trans-(3-fluorocyclobutanecarbonyl)amino]-N-[[(1R,2S)-2-fluorocyclopropyl]methyl]-4,5,6,7-tetrahydro-1-benzothiophene-3-carboxamide], the pIC50 is more than 6.00.

With `Cn1nc(OC(F)F)cc1Nc1nncn1[C@H]1CCc2sc(NC(=O)[C@H]3C[C@H](F)C3)c(C(=O)NC[C@H]3C[C@H](F)C3)c2C1` [Example 486, (5S)-5-[3-[[5-(difluoromethoxy)-2-methylpyrazol-3-yl]amino]-1,2,4-triazol-4-yl]-2-[trans-(3-fluorocyclobutanecarbonyl)amino]-N-[trans-(3-fluorocyclobutyl)methyl]-4,5,6,7-tetrahydro-1-benzothiophene-3-carboxamide], the negative logarithm of the IC50 (pIC50) is more than 6.00.

Consider `Cn1nc(OC(F)F)cc1Nc1nncn1[C@H]1CCc2sc(NC(=O)[C@H]3C[C@H](F)C3)c(C(=O)N[C@H]3C[C@H](F)C3)c2C1` [Example 487, (5S)-5-[3-[[5-(difluoromethoxy)-2-methylpyrazol-3-yl]amino]-1,2,4-triazol-4-yl]-2-[trans-(3-fluorocyclobutanecarbonyl)amino]-N-(trans-3-fluorocyclobutyl)-4,5,6,7-tetrahydro-1-benzothiophene-3-carboxamide], for which the pIC50 was more than 6.00.

`Cn1nc(OC(F)F)cc1Nc1nncn1[C@H]1CCc2sc(NC(=O)C3CC(F)(F)C3)c(C(=O)NC[C@@H]3C[C@@H]3F)c2C1` [Example 490, (5S)-2-[(3,3-difluorocyclobutanecarbonyl)amino]-5-[3-[[5-(difluoromethoxy)-2-methylpyrazol-3-yl]amino]-1,2,4-triazol-4-yl]-N-[[(1S,2S)-2-fluorocyclopropyl]methyl]-4,5,6,7-tetrahydro-1-benzothiophene-3-carboxamide]: the pIC50 was more than 6.00.

In the case of `Cn1nc(OC(F)F)cc1Nc1nncn1[C@H]1CCc2sc(NC(=O)C3CC(F)(F)C3)c(C(=O)NC[C@H]3C[C@H]3F)c2C1` [Example 491, (5S)-2-[(3,3-difluorocyclobutanecarbonyl)amino]-5-[3-[[5-(difluoromethoxy)-2-methylpyrazol-3-yl]amino]-1,2,4-triazol-4-yl]-N-[[(1R,2R)-2-fluorocyclopropyl]methyl]-4,5,6,7-tetrahydro-1-benzothiophene-3-carboxamide], the pIC50 was more than 6.00.

On to `Cn1nc(OC(F)F)cc1Nc1nncn1[C@H]1CCc2sc(NC(=O)C3CC(F)(F)C3)c(C(=O)N[C@H]3C[C@H](F)C3)c2C1` [Example 492, (5S)-2-[(3,3-difluorocyclobutanecarbonyl)amino]-5-[3-[[5-(difluoromethoxy)-2-methylpyrazol-3-yl]amino]-1,2,4-triazol-4-yl]-N-(trans-3-fluorocyclobutyl)-4,5,6,7-tetrahydro-1-benzothiophene-3-carboxamide], for which the negative logarithm of the IC50 (pIC50) was more than 6.00.

On to `Cn1nc(C(F)F)cc1Nc1nncn1[C@H]1CCc2sc(NC(=O)C3CC3)c(C(=O)N[C@@H]3CC34CC4)c2C1` [Example 496, (5S)-2-(cyclopropanecarbonylamino)-5-[3-[[5-(difluoromethyl)-2-methyl-pyrazol-3-yl]amino]-1,2,4-triazol-4-yl]-N-[(2R)-spiro[2.2]pentan-2-yl]-4,5,6,7-tetrahydrobenzothiophene-3-carboxamide], for which the negative-log IC50 (pIC50) is more than 6.00.
